Measurements from ChEMBL document CHEMBL1136769 (J Med Chem, 2003).

Columns and labels:
[1] = target: Sodium-dependent dopamine transporter (Macaca mulatta); assay: Inhibition of [3H]WIN-35428 Binding to the Dopamine Transporter in Rhesus (Macaca mulatta) orCynomolgus Monkey (Macaca fascicularis) Caudate-Putamen
[2] = Inhibition of [3H]citalopram Binding to the Serotonin Transporter in Rhesus (Macaca mulatta) or Cynomolgus Monkey (Macaca fascicularis) Caudate-Putamen

SMILES | IC50 [1] | IC50 [2]
COC(=O)[C@@H](c1ccccc1)[C@@H]1CCCCO1 | 3 µM | > 100 µM
COC(=O)C(c1ccc(Cl)c(Cl)c1)C1CCCC1 (configuration not stated) | 0.047 µM | 7 µM
COC(=O)[C@@H](c1ccc2ccccc2c1)[C@@H]1CCCCO1 | 0.43 µM | 1 µM
N#CC(c1ccc(Cl)c(Cl)c1)C1CCCC1 (configuration not stated) | 0.128 µM | 10 µM
COC(=O)C(c1ccc(Cl)c(Cl)c1)C1CCCCC1 (configuration not stated) |  | 12 µM
COC(=O)[C@H](c1ccc(Cl)c(Cl)c1)[C@H]1CCCCO1 |  | > 10 µM
N#CC(c1ccc(Cl)c(Cl)c1)C1CCCCC1 (configuration not stated) | 0.127 µM | 8 µM
COC(=O)C(c1ccccc1)C1CCCCN1 (racemic) [METHYLPHENIDATE] |  | > 100 µM
COC(=O)[C@H](c1ccccc1)[C@@H]1CCCCO1 (single isomer, unassigned) | 13 µM | > 100 µM
COC(=O)[C@@H](c1ccc(Cl)c(Cl)c1)[C@H]1CCCCO1 (single isomer, unassigned) |  | 7.8 µM
COC(=O)[C@H](c1ccc2ccccc2c1)[C@@H]1CCCCO1 (single isomer, unassigned) | 4 µM | 10 µM
COC(=O)[C@H](c1ccc(Cl)c(Cl)c1)[C@@H]1CCCCO1 (single isomer, unassigned; 5c) |  | 7.79 µM
COC(=O)[C@H](c1ccc(Cl)c(Cl)c1)[C@@H]1CCCCO1 (single isomer, unassigned; 15) |  | > 10 µM
COC(=O)[C@@H](c1ccc(Cl)c(Cl)c1)[C@@H]1CCCCO1 (stereo in doubt; 4c) |  | 2.18 µM
COC(=O)[C@@H](c1ccc(Cl)c(Cl)c1)[C@@H]1CCCCO1 (stereo in doubt; 12) |  | 1.66 µM
